Experiment [1] has as its system Acinetobacter johnsonii. As to the kind of experiment: Ratio of kcat to Km for Acinetobacter johnsonii SCO1.
Experiment [2] deals with Acinetobacter johnsonii. As to the kind of experiment: Activity of Acinetobacter johnsonii SCO1.
Experiment [3] relates to Acinetobacter johnsonii. The experiment in a line: Antibacterial activity against Acinetobacter johnsonii 7037 expressing SCO1 by agar dilution technique. It counts as functional. (In agar dilution the substance is mixed into plates at graded concentrations.)
Experiment [4] concerns Escherichia coli. As to the kind of experiment: Antibacterial activity against Escherichia coli DH10B by agar dilution technique. It counts as functional.
Experiment [5] relates to Escherichia coli. As to the kind of experiment: Antibacterial activity against Escherichia coli DH10B expressing SCO1 by agar dilution technique. It counts as functional.
Experiment [6] is described as follows: Inhibition of Acinetobacter johnsonii SCO1.

In brackets after ≈: the same amount, converted by molar mass.

As to `CC1(C)S[C@@H]2[C@H](NC(=O)Cc3ccccc3)C(=O)N2[C@H]1C(=O)O`, the Ratio in the experiment on Acinetobacter johnsonii [1] was found to be 7500 mM⁻¹ s⁻¹. For the same compound, in the experiment on Acinetobacter johnsonii [2], the Km – broadly, the concentration of substrate that gives half-maximal velocity – stood at 20 µM and the kcat (commonly the maximal rate divided by the concentration of active sites) came to 150 s⁻¹.

For `CC1(C)S[C@@H]2[C@H](NC(=O)[C@H](N)c3ccccc3)C(=O)N2[C@H]1C(=O)O`, in the experiment on Acinetobacter johnsonii [1], the Ratio stood at 6700 mM⁻¹ s⁻¹. Further, in the experiment on Acinetobacter johnsonii [2], the Km came to 40 µM and the kcat worked out at 270 s⁻¹.

Consider `C[C@@H](O)[C@H]1C(=O)N2C(C(=O)O)=C(S[C@@H]3CN[C@H](C(=O)N(C)C)C3)[C@H](C)[C@H]12`, for which the kcat in the experiment on Acinetobacter johnsonii [2] is < 0.01 s⁻¹.

`CC1(C)S[C@@H]2[C@H](NC(=O)[C@H](N)c3ccc(O)cc3)C(=O)N2[C@H]1C(=O)O` [AMOXICILLIN]: the figures for the MIC against Acinetobacter johnsonii [3], against Escherichia coli [4] and against Escherichia coli [5] were > 512 µg/mL, 2 µg/mL (≈ 5.47 µM) and > 512 µg/mL, respectively.

`C[C@H]1[C@H](NC(=O)/C(=N\OC(C)(C)C(=O)O)c2csc(N)n2)C(=O)N1S(=O)(=O)O` [AZTREONAM]: in the experiment with Acinetobacter johnsonii [3], the MIC (in general, the least concentration at which growth counts as inhibited) is > 512 µg/mL. For the same compound, in the experiment on Acinetobacter johnsonii [2], the kcat was < 0.01 s⁻¹.

For the compound `CO/N=C(\C(=O)N[C@@H]1C(=O)N2C(C(=O)[O-])=C(C[N+]3(C)CCCC3)CS[C@H]12)c1csc(N)n1` [CEFEPIME], the MIC in the experiment on Acinetobacter johnsonii [3] was > 512 µg/mL. In the experiment with Acinetobacter johnsonii [1], the Ratio was found to be 0.8 mM⁻¹ s⁻¹. The compound further returned an MIC against Escherichia coli [5] of 0.12 µg/mL (≈ 0.25 µM). In the experiment on Acinetobacter johnsonii [2], the Km is > 2000 µM and the turnover number (kcat) was > 1.5 s⁻¹.

For the compound `CO/N=C(\C(=O)N[C@@H]1C(=O)N2C(C(=O)O)=C(COC(C)=O)CS[C@H]12)c1csc(N)n1` [CEFOTAXIME], the MIC with Acinetobacter johnsonii [3] was > 512 µg/mL; with Escherichia coli [4] it was 0.12 µg/mL (≈ 0.263 µM); against Escherichia coli [5], 0.25 µg/mL (≈ 0.549 µM). The Ratio in the experiment with Acinetobacter johnsonii [1] turned out to be 0.05 mM⁻¹ s⁻¹. Besides, the Km with Acinetobacter johnsonii [2] is 2000 µM. In the experiment with Acinetobacter johnsonii [2], the kcat was determined as 0.1 s⁻¹.

Take `CO[C@@]1(NC(=O)Cc2cccs2)C(=O)N2C(C(=O)O)=C(COC(N)=O)CS[C@@H]21` [CEFOXITIN]: the MIC in the experiment with Acinetobacter johnsonii [3] was > 512 µg/mL; with Escherichia coli [4] it was 4 µg/mL (≈ 9.36 µM); in the experiment with Escherichia coli [5], 4 µg/mL (≈ 9.36 µM). The kcat with Acinetobacter johnsonii [2] is < 0.01 s⁻¹.

`CC(C)(O/N=C(\C(=O)N[C@@H]1C(=O)N2C(C(=O)[O-])=C(C[n+]3ccccc3)CS[C@H]12)c1csc(N)n1)C(=O)O` [CEFTAZIDIME]: the MIC with Acinetobacter johnsonii [3] was > 512 µg/mL; against Escherichia coli [4] it was 0.06 µg/mL (≈ 0.11 µM); against Escherichia coli [5], 0.5 µg/mL (≈ 0.915 µM). Also, in the experiment with Acinetobacter johnsonii [1], the Ratio amounted to 0.5 mM⁻¹ s⁻¹. Moreover, the Km in the experiment with Acinetobacter johnsonii [2] is 600 µM. Further, the kcat in the experiment with Acinetobacter johnsonii [2] came to 0.3 s⁻¹.

Regarding `CO/N=C(\C(=O)N[C@@H]1C(=O)N2C(C(=O)O)=C(COC(N)=O)CS[C@H]12)c1ccco1` [CEFUROXIME], the MIC was > 512 µg/mL against Acinetobacter johnsonii [3], 2 µg/mL (≈ 4.71 µM) with Escherichia coli [4] and 4 µg/mL (≈ 9.43 µM) in the experiment with Escherichia coli [5]. Besides, the Ratio with Acinetobacter johnsonii [1] is 0.08 mM⁻¹ s⁻¹. Besides, in the experiment on Acinetobacter johnsonii [2], the Km came out at 650 µM. For the same compound, the kcat with Acinetobacter johnsonii [2] came out at 0.05 s⁻¹.

As for `CC(=O)OCC1=C(C(=O)O)N2C(=O)[C@@H](NC(=O)Cc3cccs3)[C@H]2SC1` [CEPHALOTHIN], the MIC is > 512 µg/mL in the experiment on Acinetobacter johnsonii [3], 2 µg/mL (≈ 5.04 µM) in the experiment with Escherichia coli [4] and 8 µg/mL (≈ 20.2 µM) in the experiment with Escherichia coli [5]. Also, the Ratio in the experiment with Acinetobacter johnsonii [1] is 1 mM⁻¹ s⁻¹. Besides, the Km in the experiment with Acinetobacter johnsonii [2] stood at 120 µM. In addition, the kcat in the experiment on Acinetobacter johnsonii [2] came out at 0.1 s⁻¹.

`O=C(O)[C@H]1/C(=C/CO)O[C@@H]2CC(=O)N21` [CLAVULANIC ACID]: the IC50 – broadly, the point on the concentration scale where inhibition reaches its midpoint – in experiment [6] amounted to 300 nM.

For the compound `C[C@@H](O)[C@H]1C(=O)N2C(C(=O)O)=C(SCCNC=N)C[C@H]12` [IMIPENEM ANHYDROUS], 0.12 µg/mL (≈ 0.401 µM) was the least that counted as inhibitory in the experiment with Acinetobacter johnsonii [3] (MIC). Further, the Ratio in the experiment with Acinetobacter johnsonii [1] was determined as 0.008 mM⁻¹ s⁻¹. Besides, in the experiment on Acinetobacter johnsonii [2], the Km worked out at 3800 µM and the turnover number (kcat) was 0.03 s⁻¹.

On to `CCN1CCN(C(=O)N[C@@H](C(=O)N[C@@H]2C(=O)N3[C@@H]2SC(C)(C)[C@@H]3C(=O)O)c2ccccc2)C(=O)C1=O` [PIPERACILLIN], for which the MIC amounted to 64 µg/mL (≈ 124 µM) in the experiment on Acinetobacter johnsonii [3], 1 µg/mL (≈ 1.93 µM) against Escherichia coli [4] and 128 µg/mL (≈ 247 µM) in the experiment on Escherichia coli [5]. In the experiment with Acinetobacter johnsonii [1], the Ratio amounted to 40 mM⁻¹ s⁻¹. In addition, the Km in the experiment with Acinetobacter johnsonii [2] came out at 10 µM. In addition, in the experiment on Acinetobacter johnsonii [2], the kcat was determined as 0.4 s⁻¹.

On to `C[C@]1(Cn2ccnn2)[C@H](C(=O)O)N2C(=O)C[C@H]2S1(=O)=O` [TAZOBACTAM], for which the IC50 in experiment [6] is 1200 nM.

Consider `CC1(C)S[C@@H]2[C@H](NC(=O)[C@H](C(=O)O)c3ccsc3)C(=O)N2[C@H]1C(=O)O` [TICARCILLIN], for which the MIC against Acinetobacter johnsonii [3] was > 512 µg/mL; with Escherichia coli [4], 2 µg/mL (≈ 5.2 µM); in the experiment on Escherichia coli [5], > 512 µg/mL. For the same compound, in the experiment on Acinetobacter johnsonii [1], the Ratio was determined as 450 mM⁻¹ s⁻¹. In the experiment on Acinetobacter johnsonii [2], the Km stood at 80 µM. In the experiment on Acinetobacter johnsonii [2], the kcat is 35 s⁻¹.

The record behind these values is ChEMBL document CHEMBL1145470, “Identification of the novel narrow-spectrum beta-lactamase SCO-1 in Acinetobacter spp. from Argentina” (Antimicrob Agents Chemother, 2007).
